Experimental data from ChEMBL document CHEMBL1147452, “A new approach to the synthesis of optically active alkylated adenine derivatives” (Bioorg Med Chem Lett, 2004).

How the values were obtained:
[1] = test system: Monkeypox virus; assay: Inhibitory concentration required against Monkeypox virus in Vero cell culture; type: functional, organism-based
[2] = test system: Cowpox virus; assay: Inhibitory concentration required against Cowpox virus in Vero cell culture; type: functional, organism-based
[3] = Cytotoxic concentration at which cell viability was reduced by 50%; type: functional
[4] = test system: Vaccinia virus; assay: Inhibitory concentration required against vaccinia virus in Vero cell culture; type: functional, organism-based; settings: Orthopoxvirus vaccinia
[5] = test system: Variola virus; assay: Inhibitory concentration required against replication of small pox virus (strain India 3a) in Vero cells; type: functional, organism-based

Structure (SMILES): Nc1ncnc2c1ncn2C[C@H]1COP(=O)(O)CO1
- IC50 [1]: 48 µM
- IC50 [2]: 61 µM
- CC50 [3]: > 350 µM
- IC50 [4]: 41 µM

Structure (SMILES): Nc1ncnc2c1ncn2C[C@H](O)C(=O)O
- IC50 [5]: 91 µM

Structure (SMILES): Nc1ncnc2c1ncn2C[C@@H]1COP(=O)(O)CO1
- IC50 [1]: > 350 µM
- IC50 [2]: > 350 µM
- CC50 [3]: > 350 µM
- IC50 [4]: > 350 µM

Structure (SMILES): Nc1ncnc2c1ncn2C[C@@H](O)CO
- IC50 [1]: > 500 µM
- IC50 [2]: > 500 µM
- CC50 [3]: > 500 µM
- IC50 [4]: > 500 µM

Structure (SMILES): COC(CO)O[C@@H](CO)Cn1cnc2c(N)ncnc21 (some centres undefined)
- IC50 [5]: 62 µM

Structure (SMILES): Nc1ncnc2c1ncn2C[C@H](O)CO [(S)-DHPA]
- IC50 [1]: 54 µM
- IC50 [2]: 49 µM
- CC50 [3]: > 500 µM
- IC50 [4]: 34 µM
- IC50 [5]: 41 µM
